Assay [1] concerns healthy donor T cells (PBMCs) and NK cells. Nature of the assay: CFSE proliferation assay with exogenous adenosine. In kind it is cell-based, human. Particulars: higher concentration further restoring proliferation, data not shown.
Assay [2] has as its system sarcoma TILs against autologous tumor cells. The assay is described as follows: Chromium (51Cr) release cytotoxicity assay, sarcoma TILs. In kind it is cell-based, human. Particulars: synthetic ADO, 24 hours. As to the method:
Chromium (51Cr) release cytotoxicity assay
Chromium (51Cr) release assay was used to measure the autologous TILs-mediated cytotoxicity against the established patient-derived breast and […] cell lines. Briefly, breast and sarcoma tumor cells were labelled with 51Cr (PerkinElmer) as target cells and seeded on 96-well V-bottom plate (Corning) at 5 000cells/well. Effector TILs were added at the indicated Effector: Target (E:T) ratios. The supernatants were collected carefully into LUMA plates (PerkinElmer) after 24 and 48 hours of co-culture. After drying overnight, radioactivity of the plate was read with MicroBeta2 (PerkinElmer).
Relative adenosine production assay
An ectonucleotidase CD73 assay was optimized to measure the relative ADO production based on competitive AMP blockade and presence of CD73+ cells. Day five patient-derived sarcoma spheroids were digested and split into triplicates in X-VIVO20 and 1% PS culture media with an excessive amount of AMP at 0.4mM (Sigma-Aldrich) incubated for 30 minutes.
After 1500 RPM was applied for three minutes, 25 μL supernatant were removed and mixed with 25 μL of 200 μM ATP (Sigma-Aldrich) in the same media. 25 μL of this mixture was added to a white opaque OptiPlate (PerkinElmer) containing 25 μL Cell-Titer Glo reagent (Promega, US). Relative luminescence unit (RLU) can be read on SPARK 10M plate reader with an integration time of 100ms. […]

The next assay has as its target T1, human A2AAR (Homo sapiens, UniProt P29274).
T1 construct: expressed in transfected cells; host or cells: HeLa
The assay is described as follows: Radioligand binding, human A2AAR ([3H]ZM241385, transfected HeLa cells). Particulars: displacement of [3H]ZM241385, human HeLa cells, n=3, racemic mixtures; read-out: Ki hA2A. The protocol: The affinity and selectivity profiles of the ligands obtained was studied in vitro, radioligand binding assays, at the four human specific ARs subtypes, using experimental protocols previously described.[28–30] All ligands were prepared and tested as racemic mixtures. […] Non-specific binding was determined in the presence of R-PIA 10 µM for A1AR, NECA 50 µM for A2AAR, NECA 400 μΜ for A2BAR and R-PIA 100 μΜ for A3AR.
A general note: In a radioligand displacement assay an active substance lowers the binding of a labelled ligand.

The text below walks through data of PMC9115112, “A2B adenosine receptor antagonists rescue lymphocyte activity in adenosine-producing patient-derived cancer models” (Journal for Immunotherapy of Cancer, 2022).

Molecules are shown by their SMILES.

A word on the Ki: it is the dissociation constant of the complex between target and ligand, obtained from inhibition or displacement.

T1 sequence (P29274 whole entry): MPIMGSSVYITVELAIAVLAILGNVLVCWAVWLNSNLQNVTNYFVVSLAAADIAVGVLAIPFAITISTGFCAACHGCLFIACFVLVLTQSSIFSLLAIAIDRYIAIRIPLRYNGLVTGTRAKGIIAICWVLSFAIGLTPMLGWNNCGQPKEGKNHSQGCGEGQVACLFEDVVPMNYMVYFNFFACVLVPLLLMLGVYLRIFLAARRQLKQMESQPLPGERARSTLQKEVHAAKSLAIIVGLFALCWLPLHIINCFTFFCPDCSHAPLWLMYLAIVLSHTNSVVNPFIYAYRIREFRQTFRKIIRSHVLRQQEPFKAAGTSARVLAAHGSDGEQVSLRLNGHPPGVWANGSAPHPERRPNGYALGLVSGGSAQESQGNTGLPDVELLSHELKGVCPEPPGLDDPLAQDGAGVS

Consider `CC1=C(C(=O)OC(C)C)C(c2ccco2)n2c(nc3ccccc32)N1` (stereo not drawn) [ISAM-140, isopropyl 4-(furan-2-yl)−2-methyl-1,4-dihydrobenzo[4 5] imidazo[1,2 a]pyrimidine-3-carboxylate], for which the “Dose dependence of the proliferation rescue on T and NK cells” value in assay [1] is given as “dose-dependent”.
With `CC1=C(C(=O)OC(C)C)C(c2ccco2)n2c(nc3ccccc32)N1Cc1ccccc1F` (stereo not drawn) [ISAM-R56A], in assay [2], the “Rescue of killing in sarcoma TILs against autologous tumor cells” value was “also rescued killing”. Further, at human A2AAR, the Ki is over 1000 nM.
